Laboratory results published in patent US20050197343A1, “Utilization of heteroarene carboxamide as dopamine-d3 ligands for the treatment of cns diseases” (priority 2002, published 2005).
Where two headings read alike, the source gives them in different places.

Assays:
D3 receptor [1] = molecular target: T1, D3 receptor (Homo sapiens, UniProt P35462); assay: radio ligand binding assay, CHO cell membrane homogenates, [3H]Spiperon, D3; parameters: expressed in transfected cells; host or cells: CHO cells (membrane homogenates); details: for Ki: hD3, average of 2-9 experiments in triplicate, read-out: Ki-values D3; for D3 selectivity D2long/D3 / D3 selectivity D2short/D3 / D3 selectivity D4.4/D3: ratio of Ki values
T1 sequence (P35462 whole entry): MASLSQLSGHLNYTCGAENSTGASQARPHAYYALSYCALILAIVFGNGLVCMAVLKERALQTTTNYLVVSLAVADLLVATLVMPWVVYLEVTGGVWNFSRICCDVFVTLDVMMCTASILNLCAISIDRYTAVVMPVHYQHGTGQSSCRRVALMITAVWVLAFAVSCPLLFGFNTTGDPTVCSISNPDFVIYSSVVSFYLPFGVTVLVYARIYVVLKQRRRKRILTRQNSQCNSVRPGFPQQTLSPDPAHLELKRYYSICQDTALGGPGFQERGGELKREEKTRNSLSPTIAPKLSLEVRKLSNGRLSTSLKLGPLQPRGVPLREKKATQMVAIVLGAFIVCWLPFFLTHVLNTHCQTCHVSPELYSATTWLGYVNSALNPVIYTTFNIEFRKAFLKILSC
Method: (§1) The biological activities of the compounds of the invention were determined in radio ligand binding assays.

α1 receptors = assay: competitive experiment with the α1 selective radio ligand [3H]Prazosin; details: read-out: Ki values α1 (footnote d); pα1; competitive experiment with [3H]Prazosin
D3 receptor [2] = molecular target: T1, D3 receptor; assay: mitogenesis assay (intrinsic activity); format: cell-based
Text: D3 ligands may show agonistic, antagonistic or partial-agonistic activity on the D3 receptor. The respective intrinsic activities of the compounds of the invention may be measured in mitogenesis assays as described in literature (Hübner, H. et al. J. Med. Chem. 2000, 43, 4563-4569, and Löber, S. Bioorg. Med. Chem. Lett. 2002, 12.17, 2377-2380). Depending on the pathophysiology of the underlying disease, a stronger agonistic, stronger antagonistic or partial-agonistic activity may be desirable. The present invention therefore permits an excellent fine-tuning of the desired activity.
Tests to determine the intrinsic activity of the compounds of the examples were carried out in a mitogenesis assay as described in literature (Hübner, H. et al. J. Med. Chem. 2000, 43, 4563-4569; Löber, S. Bioorg. Med. Chem. Lett. 2002, 12.17, 2377-2380).

[3] = molecular target: adrenergic receptor subtype α1; assay: radio ligand binding, pig cortex membranes, highly affine binding site on labelling with [3H]Ketanserin; details: read-out: Ki values α1 (footnote c); pα1; derived from the highly affine binding site on labelling with [3H]Ketanserin
human D4.4 receptor = molecular target: T2, human D4.4 receptor (Homo sapiens, UniProt P21917); assay: radio ligand binding assay, CHO cell membrane homogenates, [3H]Spiperon, D4.4; details: for Ki: hD4.4, average of 2-9 experiments in triplicate
T2 construct: expressed in transfected cells; host or cells: CHO cells (membrane homogenates)
T2 sequence (P21917 1-419): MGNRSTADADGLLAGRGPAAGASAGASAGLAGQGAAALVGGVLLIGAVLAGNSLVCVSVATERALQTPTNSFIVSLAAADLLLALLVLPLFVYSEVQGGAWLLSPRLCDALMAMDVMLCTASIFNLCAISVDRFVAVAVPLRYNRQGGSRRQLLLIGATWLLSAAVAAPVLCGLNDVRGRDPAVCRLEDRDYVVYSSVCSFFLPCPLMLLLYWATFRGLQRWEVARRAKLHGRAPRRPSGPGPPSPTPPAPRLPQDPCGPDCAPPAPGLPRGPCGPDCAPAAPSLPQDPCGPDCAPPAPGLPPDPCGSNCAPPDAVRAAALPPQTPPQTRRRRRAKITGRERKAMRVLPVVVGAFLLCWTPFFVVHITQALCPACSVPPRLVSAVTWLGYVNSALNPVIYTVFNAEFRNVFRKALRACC
Method: as §1

human D2long receptor = molecular target: T3, human D2long receptor (Homo sapiens, UniProt P14416); assay: radio ligand binding assay, CHO cell membrane homogenates, [3H]Spiperon, D2long; details: hD2long; average of 2-9 experiments in triplicate
T3 construct: expressed in transfected cells; host or cells: CHO cells (membrane homogenates)
T3 sequence (P14416 whole entry): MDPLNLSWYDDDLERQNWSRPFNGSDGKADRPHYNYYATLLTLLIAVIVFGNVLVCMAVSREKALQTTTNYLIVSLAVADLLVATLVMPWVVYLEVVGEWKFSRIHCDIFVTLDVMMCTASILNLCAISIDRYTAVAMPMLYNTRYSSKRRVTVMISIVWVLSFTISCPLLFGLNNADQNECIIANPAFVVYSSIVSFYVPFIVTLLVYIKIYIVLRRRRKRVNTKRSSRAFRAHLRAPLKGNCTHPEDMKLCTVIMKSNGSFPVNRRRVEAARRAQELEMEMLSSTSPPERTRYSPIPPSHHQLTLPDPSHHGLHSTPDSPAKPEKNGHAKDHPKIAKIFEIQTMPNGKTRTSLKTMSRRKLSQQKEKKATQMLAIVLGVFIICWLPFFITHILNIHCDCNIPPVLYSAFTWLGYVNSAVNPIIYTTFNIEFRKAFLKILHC
Method: as §1

serotonin receptor 5-HT2 = molecular target: T4, serotonin receptor 5-HT2 (Sus scrofa, UniProt P50129); assay: radio ligand binding, pig cortex membrane preparations, [3H]Ketanserin with 10 μM Prazosin; details: p5-HT2; simultaneous incubation with 10 μM of Prazosin
T4 construct: cortex membrane preparations of a pig; from tissue; host or cells: pig cortex
T4 sequence (P50129 whole entry): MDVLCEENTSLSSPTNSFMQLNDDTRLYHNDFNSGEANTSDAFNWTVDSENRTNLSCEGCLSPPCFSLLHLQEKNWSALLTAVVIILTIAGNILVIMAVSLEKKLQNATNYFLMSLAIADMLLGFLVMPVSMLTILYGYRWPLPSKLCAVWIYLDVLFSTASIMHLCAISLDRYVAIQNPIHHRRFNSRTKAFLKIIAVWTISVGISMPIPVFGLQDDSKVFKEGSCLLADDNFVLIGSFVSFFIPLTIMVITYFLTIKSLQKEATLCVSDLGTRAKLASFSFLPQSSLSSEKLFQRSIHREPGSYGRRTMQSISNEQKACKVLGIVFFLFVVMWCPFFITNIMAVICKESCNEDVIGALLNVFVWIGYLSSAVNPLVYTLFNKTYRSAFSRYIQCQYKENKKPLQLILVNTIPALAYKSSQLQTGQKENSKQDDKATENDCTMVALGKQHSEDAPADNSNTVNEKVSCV

D1 receptor = molecular target: T5, D1 receptor (Sus scrofa, UniProt P50130); assay: radio ligand binding assay, D1 receptor, pig striatum membrane homogenates, [3H]SCH 23390; details: pD1; average of 2-9 experiments in triplicate
T5 construct: native membrane homogenates obtained from the striatum of a pig; from tissue; host or cells: pig striatum
T5 sequence (P50130 whole entry): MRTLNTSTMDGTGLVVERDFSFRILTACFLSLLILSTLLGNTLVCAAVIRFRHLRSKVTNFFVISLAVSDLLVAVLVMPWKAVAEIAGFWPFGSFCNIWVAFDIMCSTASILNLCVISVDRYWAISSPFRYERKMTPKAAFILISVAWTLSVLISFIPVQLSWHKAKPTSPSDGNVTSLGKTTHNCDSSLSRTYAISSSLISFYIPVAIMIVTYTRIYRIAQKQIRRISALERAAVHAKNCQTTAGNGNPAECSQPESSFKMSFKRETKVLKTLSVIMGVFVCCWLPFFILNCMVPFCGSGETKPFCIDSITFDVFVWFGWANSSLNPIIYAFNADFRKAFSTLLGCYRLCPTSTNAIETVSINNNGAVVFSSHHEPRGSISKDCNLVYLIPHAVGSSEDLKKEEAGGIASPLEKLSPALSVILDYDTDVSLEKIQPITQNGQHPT
Method: as §1

human D2short receptor = molecular target: T6, human D2short receptor (Homo sapiens, UniProt P14416); assay: radio ligand binding assay, CHO cell membrane homogenates, [3H]Spiperon, D2short; details: hD2short; average of 2-9 experiments in triplicate
T6 construct: expressed in transfected cells; host or cells: CHO cells (membrane homogenates)
T6 sequence (P14416 1-414 isoform P14416-2): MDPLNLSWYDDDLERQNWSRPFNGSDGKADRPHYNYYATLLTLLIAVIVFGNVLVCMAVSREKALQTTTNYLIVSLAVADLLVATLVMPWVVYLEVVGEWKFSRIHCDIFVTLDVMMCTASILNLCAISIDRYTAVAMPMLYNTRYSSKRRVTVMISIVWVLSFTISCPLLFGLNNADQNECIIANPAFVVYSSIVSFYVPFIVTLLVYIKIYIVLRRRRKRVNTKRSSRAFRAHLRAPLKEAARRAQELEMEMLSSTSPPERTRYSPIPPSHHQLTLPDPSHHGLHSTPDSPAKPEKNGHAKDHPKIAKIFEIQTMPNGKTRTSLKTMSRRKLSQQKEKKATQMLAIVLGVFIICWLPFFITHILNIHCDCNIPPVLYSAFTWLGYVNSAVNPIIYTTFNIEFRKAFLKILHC
Method: as §1

[4] = molecular target: T7, serotonin receptor 5-HT1A (Sus scrofa, UniProt A0A4X1UTF5); assay: radio ligand binding, pig cortex membrane preparations, [3H]8-OH-DPAT
T7 sequence (A0A4X1UTF5 1-422): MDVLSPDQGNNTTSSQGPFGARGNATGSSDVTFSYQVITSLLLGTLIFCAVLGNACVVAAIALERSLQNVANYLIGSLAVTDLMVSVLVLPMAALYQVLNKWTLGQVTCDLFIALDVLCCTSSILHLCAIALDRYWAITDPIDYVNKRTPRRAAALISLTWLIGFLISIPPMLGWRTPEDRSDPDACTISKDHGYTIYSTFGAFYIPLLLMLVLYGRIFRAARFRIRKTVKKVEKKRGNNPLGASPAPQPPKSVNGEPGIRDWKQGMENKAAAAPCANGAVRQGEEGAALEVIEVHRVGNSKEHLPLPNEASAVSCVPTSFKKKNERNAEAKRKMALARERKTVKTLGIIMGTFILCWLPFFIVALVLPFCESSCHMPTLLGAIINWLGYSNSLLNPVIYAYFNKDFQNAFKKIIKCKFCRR

[5] = read-out: Ki values 5-HT1A, p5-HT1A, [3H]8-OH-DPAT, average of 2 to 6 experiments

| Compound | Ki (D3 receptor [1]) | Ki (α1 receptors) | EC50 (D3 receptor [2]; curve calculation of the concentration-activity test) | partial agonistic activity, % of the maximum receptor stimulation (D3 receptor [2]; maximum triggered by the full agonist Quinpirol as reference) | Ki [3] | Ki (human D4.4 receptor) | Ki (human D2long receptor) | D3 selectivity D2long/D3 (D3 receptor [1]) | D3 selectivity D2short/D3 (D3 receptor [1]) | D3 selectivity D4.4/D3 (D3 receptor [1]) | Ki (serotonin receptor 5-HT2) | Ki (D1 receptor) | Ki (human D2short receptor) | Ki [4, 5] | D3 affinity (in words) (D3 receptor [1]) | Ki [4] | D4 affinity (in words) (human D4.4 receptor) |
| --- | --- | --- | --- | --- | --- | --- | --- | --- | --- | --- | --- | --- | --- | --- | --- | --- | --- |
| COc1ccccc1N1CCN(CCCCNC(=O)c2cc3ccccc3s2)CC1 [Example 1, N-4-(4-(2-methoxyphenyl)piperazine-1-yl)butyl-2-benzo[b]thiophenylcarbamide] | 0.23 to 0.57 nM | 6.4 nM | 0.38 nM | 49% |  |  |  |  |  |  |  |  |  |  |  |  |  |
| COc1ccccc1N1CCN(CCCCNC(=O)c2cc3ccccc3o2)CC1 [Example 3, N-4-(4-(2-methoxyphenyl)piperazine-1-yl)butyl-2-benzo[b]furanylcarbarnide] |  | 3.3 nM |  |  | 14 nM | 30 nM |  |  |  |  |  |  |  |  |  |  |  |
| COc1ccccc1N1CCN(CCCCNC(=O)c2cc3cc(Br)ccc3o2)CC1 [Example 5, N-4-(4-(2-methoxyphenyl)piperazine-1-yl)butyl-5-brom-2-benzo[b]furanylcarbamide] | 0.69 nM | 5.3 nM |  |  |  | 17 nM | 96 nM | 140 | 88 | 25 | 140 nM | 590 nM | 61 nM | 68 nM |  |  |  |
| O=C(NCCCCN1CCN(c2cccc(Cl)c2Cl)CC1)c1cc2cc(Br)ccc2o1 [Example 6, N-4-(4-(2,3-dichlorophenyl)piperazine-1-yl)butyl-5-bromo-2-benzo[b]furanylcarbarnide] | 3.4 nM | 1300 nM |  |  |  | 3100 nM | 10000 nM | 2900 | 1400 | 910 | 540 nM | 2100 nM | 4800 nM | 2500 nM | subnanomolar affinity |  |  |
| COc1ccccc1N1CCN(CCCCNC(=O)c2cc3cc(C#N)ccc3o2)CC1 [Example 7, N-4-(4-(2-methoxyphenyl)piperazine-1-yl)butyl-5-cyano-2-benzo[b]furanylcarbamide] | 4.2 nM | 11 nM |  |  | 8.2 nM | 57 nM | 130 nM |  |  |  | 390 nM |  | 89 nM |  |  | 37 nM |  |
| O=C(NCCCCN1CCN(c2cccc(Cl)c2Cl)CC1)c1cc2ccccc2[te]1 [Example 9, N-4-(4-(2,3-dichlorophenyl)piperazine-1-yl)butyl-2-benzo[b]tellurophenylcarbamide] | 0.55 nM | 100 nM |  |  |  | 150 nM | 91 nM | 170 | 87 | 270 | 730 nM | 1400 nM | 48 nM | 130 nM |  |  |  |
| COc1ccccc1N1CCN(CCCCNC(=O)c2cc3cc(C#N)ccc3[nH]2)CC1 [Example 11, N-4-(4-(2-methoxyphenyl)piperazine-1-yl)butyl-5-cyan-2-indolylcarbamide] | 0.23 to 0.57 nM | 5.9 nM |  |  | 24 nM |  |  |  |  |  | 440 nM |  |  |  |  | 83 nM |  |
| N#Cc1ccc2cc(C(=O)NCCCCN3CCN(c4cccc(Cl)c4Cl)CC3)sc2c1 [Example 21, N-4-(4-(2,3-dichlorophenyl)piperazine-1-yl)butyl-6-cyano-2-benzo[b]thiophenylcarbamide] | 0.23 to 0.57 nM | 45 nM |  |  |  |  |  |  |  |  | 290 nM |  |  |  |  | 110 nM |  |
| COc1ccccc1N1CCN(CCCCNC(=O)c2cc3ccccc3[nH]2)CC1 [Example 24, N-4-(4-(2-methoxyphenyl)piperazine-1-yl)butyl-2-indolylcarbamide] |  | 7.3 nM |  |  | 11 nM |  |  |  |  |  | 420 nM |  |  |  |  | 32 nM |  |
| N-4-(4-(2, 3-dichlorophenyl)piperazine-1 -yl)butyl-2-ferrocenylcarbamide [Example 17] | 0.47 nM | 73 nM |  |  |  | 0.63 nM |  |  |  |  | 250 nM |  |  | 27 nM |  |  | high D4 affinity |
| N-4-(4-(2-methoxyphenyl)piperazine-1 -yl)butyl-2-ferrocenylcarbamide [Example 16] |  | 30 nM |  |  |  |  |  |  |  |  | 500 nM |  |  | 0.6 nM |  |  | high D4 affinity |
